Source: patent US4160829A, “Antibacterial 1,2,4-oxadiazolylacetamido cephalosporins” (Gist-Brocades N.V., priority 1972, dated 1979)
Converted amounts (≈) assume the structure as drawn. Like-named read-outs stand apart in the source and are kept apart here.

What was measured:
[1] = tested on: Bruc. Suis A 2126; assay: agar serial dilution test; format: cell-based; conditions: Brucella suis, 24 h, read-out: minimal inhibitory concentration (MIC)
[2] = tested on: Staph.aureus A 355; assay: micro serial dilution test; format: cell-based, Staphylococcus aureus; conditions: Staphylococcus aureus, A355; micro serial dilution (in brackets), about 18 hours, 30° C. or 37° C.; penicillinase-producing strain; read-out: minimal inhibitory concentration (MIC)
[3] = tested on: Staph.aureus A 2001; assay: micro serial dilution test; format: cell-based, Staphylococcus aureus; conditions: Staphylococcus aureus, A2001, 18 h, micro serial dilution (in brackets), about 18 hours, 30° C. or 37° C.; read-out: minimal inhibitory concentration (MIC)
[4] = tested on: Staph.aureus A 355; assay: agar serial dilution test; conditions: Staphylococcus aureus, A355, 24 h, read-out: minimal inhibitory concentration (MIC), agar serial dilution, 24 hours, 37° C.; penicillinase-producing strain
[5] = tested on: Staph.aureus A 2000; assay: micro serial dilution test; format: cell-based, Staphylococcus aureus; conditions: Staphylococcus aureus, A2000, 18 h, micro serial dilution (in brackets), about 18 hours, 30° C. or 37° C.; read-out: minimal inhibitory concentration (MIC)
[6] = tested on: Staph.aureus A 321; assay: agar serial dilution test; format: cell-based, Staphylococcus aureus; conditions: Staphylococcus aureus, A321, 24 h, agar serial dilution, 24 hours, 37° C.; read-out: minimal inhibitory concentration (MIC)
[7] = tested on: Strep.haem A 1088; assay: agar serial dilution test; format: cell-based, Streptococcus haemolyticus; conditions: Streptococcus, A1088, 24 hours, 37° C., read-out: minimal inhibitory concentration (MIC)
[8] = tested on: Pseud.aerug. 2396; assay: agar serial dilution test; format: cell-based; conditions: agar serial dilution, 24 hours, 37° C.; read-out: minimal inhibitory concentration (MIC)
[9] = tested on: Bac.Subt.ATCC 6633; assay: agar serial dilution test; format: cell-based, Bacillus subtilis; conditions: Bacillus subtilis, ATCC6633, 24 h, agar serial dilution, 24 hours, 37° C.; read-out: minimal inhibitory concentration (MIC)
[10] = tested on: Dipl.pneum. L 54; assay: agar serial dilution test; format: cell-based, Diplococcus pneumoniae; conditions: Streptococcus pneumoniae; agar serial dilution, 24 hours, 37° C.; read-out: minimal inhibitory concentration (MIC)
[11] = tested on: Actinob.equ. T 3; assay: agar serial dilution test; format: cell-based; conditions: 24 hours, 37° C., read-out: minimal inhibitory concentration (MIC)
[12] = tested on: Prot.mirab. H 3; assay: agar serial dilution test; format: cell-based, Proteus mirabilis; conditions: Proteus mirabilis
[13] = tested on: Past.multo. A 723; assay: agar serial dilution test; format: cell-based, Pasteurella multocida; conditions: Pasteurella multocida; agar serial dilution, 24 hours, 37° C.; read-out: minimal inhibitory concentration (MIC)
[14] = tested on: Prot.mirab. A 1200; assay: micro serial dilution test; format: cell-based; conditions: Proteus mirabilis; micro serial dilution (in brackets), about 18 hours, 30° C. or 37° C.; read-out: minimal inhibitory concentration (MIC)
[15] = tested on: Salm.typh. R 172; assay: agar serial dilution test; format: cell-based; conditions: 24 h, read-out: minimal inhibitory concentration (MIC)
[16] = tested on: Prot.rettg. A 821; assay: agar serial dilution test; format: cell-based, Proteus rettgeri; conditions: Providencia rettgeri, 24 h, read-out: minimal inhibitory concentration (MIC)
[17] = tested on: Salm.dubl. P 43; assay: agar serial dilution test; format: cell-based, Salmonella dublin; conditions: Salmonella enterica; agar serial dilution, 24 hours, 37° C.; read-out: minimal inhibitory concentration (MIC)
[18] = tested on: Pseud.aerug. Wyeth A 1058; assay: agar serial dilution test; format: cell-based; conditions: agar serial dilution, 24 hours, 37° C.; read-out: minimal inhibitory concentration (MIC)
[19] = tested on: Strep. faec. L 80; assay: agar serial dilution test; format: cell-based, Streptococcus faecalis; conditions: Enterococcus faecalis; agar serial dilution, 24 hours, 37° C.; read-out: minimal inhibitory concentration (MIC)
[20] = tested on: Esch.coli U 20; assay: agar serial dilution test; format: cell-based, Escherichia coli; conditions: Escherichia coli
[21] = tested on: Staph.aureus A 2001; assay: agar serial dilution test; format: cell-based, Staphylococcus aureus; conditions: Staphylococcus aureus, A2001, 24 h, agar serial dilution, 24 hours, 37° C.; read-out: minimal inhibitory concentration (MIC)
[22] = tested on: Prot.morg. 2241; assay: agar serial dilution test; format: cell-based; conditions: 24 h, agar serial dilution, 24 hours, 37° C.; read-out: minimal inhibitory concentration (MIC)
[23] = tested on: Pseud.aerug. H 10; assay: agar serial dilution test; format: cell-based; conditions: agar serial dilution, 24 hours, 37° C.; read-out: minimal inhibitory concentration (MIC)
[24] = tested on: Prot.mirab. L 93; assay: agar serial dilution test; format: cell-based, Proteus mirabilis; conditions: Proteus mirabilis
[25] = tested on: Kleb.pneum. A 809; assay: agar serial dilution test; format: cell-based, Klebsiella pneumoniae; conditions: Klebsiella pneumoniae; agar serial dilution, 24 hours, 37° C.; read-out: minimal inhibitory concentration (MIC)
[26] = tested on: Prot.mirab. A 1200; assay: agar serial dilution test; format: cell-based, Proteus mirabilis; conditions: agar serial dilution, 24 hours, 37° C.; for MIC: Proteus mirabilis, 24 h, read-out: minimal inhibitory concentration (MIC)
[27] = tested on: Sarc. lutea ATCC 9341; assay: agar serial dilution test; format: cell-based; conditions: Micrococcus luteus, ATCC9341, 24 hours, 37° C., read-out: minimal inhibitory concentration (MIC)
[28] = tested on: Staph.aureus A 2000; assay: agar serial dilution test; format: cell-based, Staphylococcus aureus; conditions: Staphylococcus aureus, A2000, 24 h, agar serial dilution, 24 hours, 37° C.; read-out: minimal inhibitory concentration (MIC)
[29] = tested on: Strep.haem. A 266; assay: agar serial dilution test; format: cell-based, Streptococcus haemolyticus; conditions: Streptococcus; agar serial dilution, 24 hours, 37° C.; read-out: minimal inhibitory concentration (MIC)
[30] = tested on: Klebsiella pneumoniae; assay: protection test; format: in vivo; conditions: ip
[31] = tested on: Bruc.melit. A 488; assay: microbe, parasite or virus in culture; format: cell-based; conditions: Brucella melitensis, 24 h, read-out: minimal inhibitory concentration (MIC)
[32] = tested on: Escherichia coli; assay: protection test; format: in vivo; conditions: ip
[33] = tested on: Proteus rettgeri; assay: protection test; format: in vivo; conditions: Providencia rettgeri, sc
[34] = acute toxicity in mice; conditions: mouse, in vivo, ip; mice (Swiss), one intraperitoneal administration
Description: (a) For sodium 7-[(3-methyl-1,2,4-oxadiazol-5-yl)-acetamido]-cephalosporanate (as prepared in Example 10), the acute toxicity was determined in mice (Swiss) with one intraperitoneal administration. The LD50 appeared to be >6000 mg/kg (Cephalotin-LD50 >6000 mg/kg).

[35] = tested on: Staph. aureus pen.resistant; assay: protection test; format: in vivo; conditions: Staphylococcus aureus, sc
[36] = tested on: Kleb.pneum. A 809; assay: micro serial dilution test; format: cell-based; conditions: Klebsiella pneumoniae; micro serial dilution (in brackets), about 18 hours, 30° C. or 37° C.; read-out: minimal inhibitory concentration (MIC)
[37] = tested on: Shig.equir. T 3; assay: agar serial dilution test; format: cell-based; conditions: 37° C.; for MIC: 24 h, read-out: minimal inhibitory concentration (MIC)
[38] = tested on: penicillin resistant Staphylococcus aureus strain; assay: protection test; format: in vivo; conditions: sc
From the text: The compound may preferably be used parenterally.

[39] = tested on: Salm.typh. R 127; assay: micro serial dilution test; format: cell-based; conditions: micro serial dilution (in brackets), about 18 hours, 30° C. or 37° C.; read-out: minimal inhibitory concentration (MIC)
From the text: Two drops of a stock solution of the test compound (antibiotic) in a known concentration were brought into the first hole of a test plate with 9 numbered holes with a sterile Pasteur pipette. After rinsing this pipette three times with a physiological NaCl-solution, two drops of a stock solution of the test organism in a culture medium were brought in all the holes except for hole 8. In the first hole, the solution of the tested compound had been half diluted, then by stirring the liquid in the first hole and adding two drops of this mixture to the second hole and so on until hole 8, dilutions of the test compound solution were obtained in geometrical progression. The hole 9 contained no antibiotic and served for checking the growth of the testogranism in a blank medium. The test plate was incubated at 30° C. or 37° C. for about 18 hours.

[40] = tested on: Salm.typh. R 127; assay: agar serial dilution test; format: cell-based; conditions: 24 h, 37° C., read-out: minimal inhibitory concentration (MIC)
[41] = tests with mice, blood levels and urine activity
[42] = agar serial dilution, 24 hours, 37° C., read-out: minimal inhibitory concentration (MIC)
[43] = agar serial dilution, 24 hours, 37° C.
[44] = U20, agar serial dilution, 24 hours, 37° C., read-out: minimal inhibitory concentration (MIC)
[45] = 24 h, read-out: minimal inhibitory concentration (MIC), agar serial dilution, 24 hours, 37° C.

Structure (SMILES)	MIC [2] [µg/mL]	MIC [3] [µg/mL]	MIC [4] [µg/mL]	MIC [5] [µg/mL]	MIC [6] [µg/mL]	MIC [8] [µg/mL]	MIC [9] [µg/mL]	MIC [10] [µg/mL]	MIC [12, 42] [µg/mL]	MIC [13] [µg/mL]	MIC [16, 43] [µg/mL]	MIC [17] [µg/mL]	MIC [18] [µg/mL]	MIC [19] [µg/mL]	MIC [20, 44] [µg/mL]	MIC [22] [µg/mL]	MIC [23] [µg/mL]	MIC [24, 42] [µg/mL]	MIC [25] [µg/mL]	MIC [28] [µg/mL]	also measured
Cc1nc(CC(=O)N[C@@H]2C(=O)N3C(C(=O)O)=C(CSc4nnnn4C)CS[C@H]23)no1 [41 B, 7-[5-methyl-1,2,4-oxadiazol-3-yl-acetamido]-3-[1-methyl-tetrazol-5-yl-mercaptomethyl]-3-cephem-4-carboxylic acid]	0.9 (≈ 1.99 µM)	0.6 (≈ 1.33 µM)	1 (≈ 2.21 µM)	0.6 (≈ 1.33 µM)	0.25 (≈ 0.553 µM)	100 (≈ 221 µM)	0.5 (≈ 1.11 µM)	1.5 (≈ 3.32 µM)	12.5 (≈ 27.6 µM)	1.5 (≈ 3.32 µM)	0.5 (≈ 1.11 µM)	1.5 (≈ 3.32 µM)	100 (≈ 221 µM)	> 100	1.5 (≈ 3.32 µM)	100 (≈ 221 µM)	100 (≈ 221 µM)	12.5 (≈ 27.6 µM)	1 (≈ 2.21 µM)	1 (≈ 2.21 µM)	MIC [1]: 1 µg/mL (≈ 2.21 µM); MIC [7]: 0.5 µg/mL (≈ 1.11 µM); MIC [11]: 0.5 µg/mL (≈ 1.11 µM); MIC [14]: 5 µg/mL (≈ 11.1 µM); MIC [15]: 1.5 µg/mL (≈ 3.32 µM); MIC [21]: 0.5 µg/mL (≈ 1.11 µM); MIC [26]: 25 µg/mL (≈ 55.3 µM); MIC [27]: 0.5 µg/mL (≈ 1.11 µM)
CC(=O)OCC1=C(C(=O)O)N2C(=O)[C@@H](NC(=O)Cc3cccs3)[C@H]2SC1 [Cephalotin, reference compound]	–	–	0.5 (≈ 1.26 µM)	–	0.5 (≈ 1.26 µM)	> 100	0.12 (≈ 0.303 µM)	0.5 (≈ 1.26 µM)	–	0.7 (≈ 1.77 µM)	–	1.5 (≈ 3.78 µM)	> 100	25 (≈ 63.1 µM)	3 (≈ 7.57 µM)	> 100	> 100	0.6 (≈ 1.51 µM)	0.7 (≈ 1.77 µM)	0.5 (≈ 1.26 µM)	MIC [29]: 0.06 µg/mL (≈ 0.151 µM); ED50 [30]: 0.8 mg/kg; MIC [31]: 6 µg/mL (≈ 15.1 µM); ED50 [32]: > 300 mg/kg; MIC [12, 45]: 12.5 µg/mL (≈ 31.5 µM); ED50 [33]: 4.34 mg/kg; LD50 [34]: > 6000 mg/kg; MIC [16]: 12.5 µg/mL (≈ 31.5 µM); ED50 [35]: 37.6 mg/kg; MIC [36]: 0.37 µg/mL (≈ 0.933 µM); MIC [37]: 1.5 µg/mL (≈ 3.78 µM); ED50 [38]: 1.3 mg/kg; MIC [39]: 3 µg/mL (≈ 7.57 µM)
COCc1noc(CC(=O)N[C@@H]2C(=O)N3C(C(=O)O)=C(COC(C)=O)CS[C@H]23)n1 [Example 37, 7-[3-methoxymethyl-1,2,4-oxadiazol-5-yl-acetamido]-cephalosporanic acid]	0.9 (≈ 2.11 µM)	0.45 (≈ 1.06 µM)	1.5 (≈ 3.52 µM)	0.6 (≈ 1.41 µM)	0.5 (≈ 1.17 µM)	> 100	0.12 (≈ 0.281 µM)	0.75 (≈ 1.76 µM)	25 (≈ 58.6 µM)	1 (≈ 2.35 µM)	3 (≈ 7.04 µM)	3 (≈ 7.04 µM)	> 100	50 (≈ 117 µM)	–	> 100	> 100	6 (≈ 14.1 µM)	3 (≈ 7.04 µM)	1.5 (≈ 3.52 µM)	MIC [40]: 12.5 µg/mL (≈ 29.3 µM); MIC [29]: 0.12 µg/mL (≈ 0.281 µM); blood levels (in words) [41]: good blood levels; urine activity against pathogenic germs (in words) [41]: strong urine activity against pathogenic germs; MIC [16]: 12.5 µg/mL (≈ 29.3 µM); MIC ([20]; U20, 24 h, read-out: minimal inhibitory concentration (MIC), agar serial dilution, 24 hours, 37° C.): 12.5 µg/mL (≈ 29.3 µM); MIC [21]: 0.75 µg/mL (≈ 1.76 µM); MIC [37]: 3 µg/mL (≈ 7.04 µM); minimal inhibitory concentration (MIC) ([37]; 24 hours): 6 µg/mL (≈ 14.1 µM); ED50 ([38]; protection test, subcutanal administration, read-out: ED50): 1.2 mg/kg; MIC [24, 45]: 12.5 µg/mL (≈ 29.3 µM); MIC [26]: 50 µg/mL (≈ 117 µM); minimal inhibitory concentration (MIC) [26]: 100 µg/mL (≈ 235 µM)
